# Experimental data as given in the SangsterLogP compilation.
row,logP,Compound
1,2.16,O=C(NC1CCCCC1(F)F)c1ccccc1 (stereo not given)
2,1.81,CC(F)(F)CCNC(=O)c1ccccc1
3,2.82,O=C(N[C@H]1C[C@H](C(F)(F)F)C1)c1ccccc1
4,2.62,O=C(N[C@H]1C[C@@H](C(F)(F)F)C1)c1ccccc1
5,1.93,O=C(Nc1ccccc1)C12CC(C(F)F)(CO1)C2
6,2.28,O=C(NCCCC(F)(F)F)c1ccccc1
7,2.12,CC(F)(F)CCC(=O)Nc1ccccc1
8,2.23,CCCCNC(=O)c1ccccc1
9,1.83,C[C@@H]1C[C@H]1NC(=O)c1ccccc1
10,2.3,O=C(N[C@@H]1C[C@@H]2C[C@@H]2C1)c1ccccc1
11,1.4,O=C(c1ccccc1)N1CCC(CF)C1 (stereo not given)
12,1.77,O=C(N[C@H]1C[C@@H](CF)C1)c1ccccc1

# More lines, now with the values behind:
row,Compound,logP
1,O=C(Nc1ccccc1)C1CC(F)(F)C1,2.26
2,O=C(NCC(F)(F)F)c1ccccc1,1.76
3,O=C(c1ccccc1)N1CCCCC1C(F)(F)F (stereo not given),2.54
4,O=C(c1ccccc1)N1CC2CCC(C1)C2(F)F,2.09
5,O=C(c1ccccc1)N1CCCC1CF (stereo not given),1.75
6,O=C(c1ccccc1)N1CC2CCCC(C1)C2(F)F,2.18
7,O=C(c1ccccc1)N1CCCCC1CF (stereo not given),2
8,O=C(Nc1ccccc1)[C@H]1C[C@H]1C(F)F,2.35
9,O=C(c1ccccc1)N1CC(C(F)(F)F)C1,1.66
10,O=C(Nc1ccccc1)[C@H]1C[C@@H](CF)C1,1.96
11,CCC(F)(F)CNC(=O)c1ccccc1,2.04
12,O=C(Nc1ccccc1)C1CC1,1.92
13,O=C(N[C@H]1C[C@H]1C(F)F)c1ccccc1,1.36
